This note sets out measurements from patent US20240109917A1 (ACTELION PHARMACEUTICALS LTD, priority 2020, published 2024).

The target of assay [1] is His6-TEV-PDGFRβ (557-1016) (Homo sapiens (Human), UniProt P09619). Kind of assay: PDGFRβ HTRF Assay. In kind it is biochemical. To be noted: read-out: PDGFR HTRF IC50. The procedure, abridged: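 Human PDGFRβ (557-1016) pre-incubated with compound for 30 min at RT in pH 7.5 HEPES/MgCl2/EGTA/Brij-35/DTT buffer. Reaction started with ATP and TK-biotin peptide, run 3 h at RT, then quenched with EDTA-containing Eu-cryptate antibody/streptavidin-XL665. HTRF 665/620 nm ratio read after 60 min; percent inhibition relative to DMSO and 10 μM imatinib controls.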
Chain of His6-TEV-PDGFRβ (557-1016) (P09619 557-1016): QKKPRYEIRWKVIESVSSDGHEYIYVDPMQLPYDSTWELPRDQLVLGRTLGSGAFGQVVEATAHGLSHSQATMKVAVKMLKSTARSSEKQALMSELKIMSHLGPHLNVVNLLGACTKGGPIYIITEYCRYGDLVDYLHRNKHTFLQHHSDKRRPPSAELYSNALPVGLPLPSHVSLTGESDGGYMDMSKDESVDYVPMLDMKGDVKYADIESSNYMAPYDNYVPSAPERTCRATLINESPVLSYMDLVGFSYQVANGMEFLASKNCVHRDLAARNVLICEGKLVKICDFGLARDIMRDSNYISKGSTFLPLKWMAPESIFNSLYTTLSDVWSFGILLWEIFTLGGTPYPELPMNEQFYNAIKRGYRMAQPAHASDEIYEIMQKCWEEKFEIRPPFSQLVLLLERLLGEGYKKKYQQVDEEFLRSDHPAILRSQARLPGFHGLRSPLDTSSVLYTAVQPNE
A general note: In TR-FRET formats the signal depends on donor and acceptor labels being close together.

The target of assay [2] is Tb-labeled inactive PDGFRβ (Homo sapiens (Human), UniProt P09619). In words: PDGFRβ LanthaScreen Assay. Format: binding. To be noted: read-out: PDGFR Lantha IC50.
Chain of Tb-labeled inactive PDGFRβ (P09619 33-1106): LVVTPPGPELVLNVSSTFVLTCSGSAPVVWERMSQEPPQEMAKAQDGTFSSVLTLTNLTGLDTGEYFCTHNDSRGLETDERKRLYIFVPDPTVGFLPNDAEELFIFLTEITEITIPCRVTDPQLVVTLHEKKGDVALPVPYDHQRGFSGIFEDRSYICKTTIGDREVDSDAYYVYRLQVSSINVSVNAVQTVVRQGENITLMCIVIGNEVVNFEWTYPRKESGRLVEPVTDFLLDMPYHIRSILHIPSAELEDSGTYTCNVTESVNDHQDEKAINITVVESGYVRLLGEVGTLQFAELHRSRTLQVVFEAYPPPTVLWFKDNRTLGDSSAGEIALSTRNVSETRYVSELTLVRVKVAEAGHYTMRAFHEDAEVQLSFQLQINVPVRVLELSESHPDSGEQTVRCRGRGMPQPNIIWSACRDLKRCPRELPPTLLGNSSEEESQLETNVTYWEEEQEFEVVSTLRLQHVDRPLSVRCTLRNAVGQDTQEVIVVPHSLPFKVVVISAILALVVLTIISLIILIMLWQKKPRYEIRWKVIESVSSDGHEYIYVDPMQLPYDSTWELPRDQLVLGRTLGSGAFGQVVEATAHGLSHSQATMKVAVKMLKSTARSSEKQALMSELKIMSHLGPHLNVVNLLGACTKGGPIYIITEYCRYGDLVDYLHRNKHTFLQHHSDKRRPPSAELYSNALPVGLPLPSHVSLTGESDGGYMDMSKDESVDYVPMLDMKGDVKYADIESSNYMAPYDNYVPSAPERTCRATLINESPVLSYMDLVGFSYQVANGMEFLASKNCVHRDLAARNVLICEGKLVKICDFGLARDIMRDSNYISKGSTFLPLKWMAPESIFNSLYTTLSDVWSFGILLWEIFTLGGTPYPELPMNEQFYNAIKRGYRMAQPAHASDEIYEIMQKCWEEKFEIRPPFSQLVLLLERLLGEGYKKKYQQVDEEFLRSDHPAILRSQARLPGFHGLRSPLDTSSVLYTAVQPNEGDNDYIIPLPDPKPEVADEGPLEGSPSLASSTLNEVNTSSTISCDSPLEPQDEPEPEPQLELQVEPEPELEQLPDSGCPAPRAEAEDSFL
Another assay addresses VEGFR2, unphosphorylated (Homo sapiens (Human), UniProt P35968). Kind of assay: VEGFR ADP GLO Assay. In kind it is biochemical. (ADP-Glo turns the ADP formed in a reaction into a luminescent signal.)

Chain of VEGFR2, unphosphorylated (P35968 20-1356): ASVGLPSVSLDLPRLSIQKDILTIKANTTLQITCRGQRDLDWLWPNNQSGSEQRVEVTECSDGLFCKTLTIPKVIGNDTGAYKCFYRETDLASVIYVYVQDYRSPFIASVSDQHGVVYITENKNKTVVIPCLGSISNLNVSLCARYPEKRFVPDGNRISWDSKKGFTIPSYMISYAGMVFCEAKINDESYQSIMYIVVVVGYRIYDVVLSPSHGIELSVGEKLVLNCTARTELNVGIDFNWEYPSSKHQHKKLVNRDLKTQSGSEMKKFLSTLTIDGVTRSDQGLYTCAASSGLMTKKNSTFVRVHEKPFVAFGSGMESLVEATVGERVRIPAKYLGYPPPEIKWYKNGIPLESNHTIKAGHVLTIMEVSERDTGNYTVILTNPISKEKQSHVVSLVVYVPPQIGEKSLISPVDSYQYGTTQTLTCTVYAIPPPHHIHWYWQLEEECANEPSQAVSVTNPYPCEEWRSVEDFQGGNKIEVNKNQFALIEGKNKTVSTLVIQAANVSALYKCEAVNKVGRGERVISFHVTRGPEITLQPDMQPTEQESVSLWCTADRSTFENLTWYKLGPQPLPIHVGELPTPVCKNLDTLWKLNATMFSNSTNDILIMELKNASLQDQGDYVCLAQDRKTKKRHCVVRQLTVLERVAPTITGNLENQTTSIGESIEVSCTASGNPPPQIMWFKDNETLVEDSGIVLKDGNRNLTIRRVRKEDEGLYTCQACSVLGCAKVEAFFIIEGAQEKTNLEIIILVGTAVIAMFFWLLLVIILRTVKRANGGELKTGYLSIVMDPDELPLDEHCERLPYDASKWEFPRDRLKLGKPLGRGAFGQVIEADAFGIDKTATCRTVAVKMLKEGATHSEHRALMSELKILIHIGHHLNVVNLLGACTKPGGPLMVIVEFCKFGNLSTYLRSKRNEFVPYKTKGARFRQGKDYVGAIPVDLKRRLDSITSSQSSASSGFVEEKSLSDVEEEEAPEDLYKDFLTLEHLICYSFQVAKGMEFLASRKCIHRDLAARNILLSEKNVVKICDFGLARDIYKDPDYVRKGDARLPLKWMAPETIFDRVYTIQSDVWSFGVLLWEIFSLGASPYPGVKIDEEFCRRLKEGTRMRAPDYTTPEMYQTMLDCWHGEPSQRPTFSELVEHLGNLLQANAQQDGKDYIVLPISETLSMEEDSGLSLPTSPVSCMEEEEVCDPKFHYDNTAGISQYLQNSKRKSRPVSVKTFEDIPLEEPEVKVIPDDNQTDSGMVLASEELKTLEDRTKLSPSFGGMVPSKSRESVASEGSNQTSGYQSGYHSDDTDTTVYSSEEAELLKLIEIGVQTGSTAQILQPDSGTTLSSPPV

Turning to `COc1cccc(-c2cn3ncc(C(=O)Nc4cc(NC(=O)CN5CC(C)(C)C5)cnc4C)c3s2)n1` [Example 394, N-(5-(2-(3,3-dimethylazetidin-1-yl)acetamido)-2-methylpyridin-3-yl)-2-(6-methoxypyridin-2-yl)pyrazolo[5,1-b]thiazole-7-carboxamide], the IC50 was 0.2 nM in assay [1]; 1.2 nM in assay [2]; above 7500 nM on VEGFR2, unphosphorylated.
In the same order, the values of `COc1ccc(-c2cn3ncc(C(=O)Nc4cc(NC(=O)CN5CC(C)(C)C5)cnc4C)c3s2)cn1` [Example 395, N-(5-(2-(3,3-dimethylazetidin-1-yl)acetamido)-2-methylpyridin-3-yl)-2-(6-methoxypyridin-3-yl)pyrazolo[5,1-b]thiazole-7-carboxamide] are 0.4 nM, 7.3 nM and above 7500 nM.
With `COc1ncccc1-c1cn2ncc(C(=O)Nc3cc(NC(=O)CN4CC(C)(OC)C4)cnc3C)c2s1` [Example 396, N-(5-(2-(3-methoxy-3-methylazetidin-1-yl)acetamido)-2-methylpyridin-3-yl)-2-(2-methoxypyridin-3-yl)pyrazolo[5,1-b]thiazole-7-carboxamide], the IC50 in assay [1] is 0.3 nM; in assay [2] it was 1.8 nM; against VEGFR2, unphosphorylated, above 7500 nM.
Turning to `COc1ncccc1-c1cn2ncc(C(=O)Nc3cc(NC(=O)CN4CCC4)cnc3C)c2s1` [Example 397, N-(5-(2-(azetidin-1-yl)acetamido)-2-methylpyridin-3-yl)-2-(2-methoxypyridin-3-yl)pyrazolo[5,1-b]thiazole-7-carboxamide], the half-maximal inhibitory concentration (IC50) is 0.8 nM in assay [1]; 22.1 nM in assay [2]; above 7500 nM against VEGFR2, unphosphorylated.
Taken in the same sequence, the figures for `Cc1ncc(NC(=O)CN2CC(C)(C)C2)cc1NC(=O)c1cnn2cc(-c3cncnc3C)sc12` [Example 398, N-(5-(2-(3,3-dimethylazetidin-1-yl)acetamido)-2-methylpyridin-3-yl)-2-(4-methylpyrimidin-5-yl)pyrazolo[5,1-b]thiazole-7-carboxamide] were 6.8 nM, 181 nM and above 7500 nM.
Regarding `COc1cnccc1-c1cn2ncc(C(=O)Nc3cc(NC(=O)CN4CC(C)(C)C4)cnc3C)c2s1` [Example 399, N-(5-(2-(3,3-dimethylazetidin-1-yl)acetamido)-2-methylpyridin-3-yl)-2-(3-methoxypyridin-4-yl)pyrazolo[5,1-b]thiazole-7-carboxamide], the IC50 in assay [1] came to 0.2 nM; in assay [2] it was 1.1 nM; at VEGFR2, unphosphorylated, 4770 nM.
Taken in the same sequence, the figures for `COc1ncccc1-c1cn2ncc(C(=O)Nc3cc(NC(=O)CN4CC(F)C4)cnc3C)c2s1` [Example 402, N-(5-(2-(3-fluoroazetidin-1-yl)acetamido)-2-methylpyridin-3-yl)-2-(2-methoxypyridin-3-yl)pyrazolo[5,1-b]thiazole-7-carboxamide] were 0.3 nM, 2.7 nM and above 7500 nM.
Regarding `COc1ncccc1-c1cn2ncc(C(=O)Nc3cc(NC(=O)CN4CC5(CCOCC5)C4)cnc3C)c2s1` [Example 403, N-(5-(2-(7-oxa-2-azaspiro[3.5]nonan-2-yl)acetamido)-2-methylpyridin-3-yl)-2-(2-methoxypyridin-3-yl)pyrazolo[5,1-b]thiazole-7-carboxamide carboxamide], the IC50 in assay [1] was 0.2 nM; in assay [2] it was 1.3 nM; against VEGFR2, unphosphorylated, above 7500 nM.
Regarding `COc1ncccc1-c1cn2ncc(C(=O)Nc3cc(NC(=O)CN4CC5(COC5)C4)cnc3C)c2s1` [Example 404, N-(5-(2-(2-oxa-6-azaspiro[3.3]heptan-6-yl)acetamido)-2-methylpyridin-3-yl)-2-(2-methoxypyridin-3-yl)pyrazolo[5,1-b]thiazole-7-carboxamide], the half-inhibitory concentration (IC50) in assay [1] was 0.3 nM; in assay [2] it was 4.9 nM; against VEGFR2, unphosphorylated, above 7500 nM.
With `COc1ncccc1-c1cn2ncc(C(=O)Nc3cc(NC(=O)CN4CC(C)C4)cnc3C)c2s1` [Example 405, 2-(2-methoxypyridin-3-yl)-N-(2-methyl-5-(2-(3-methylazetidin-1-yl)acetamido)pyridin-3-yl)pyrazolo[5,1-b]thiazole-7-carboxamide], the half-maximal inhibitory concentration (IC50) was found to be 0.2 nM in assay [1]; 3.9 nM in assay [2]; 6660 nM against VEGFR2, unphosphorylated.
Taken in the same sequence, the figures for `Cc1ncc(NC(=O)CN2CC3(CCOCC3)C2)cc1NC(=O)c1cnn2cc(-c3cnn4c3OCCC4)sc12` [Example 406, N-(5-(2-(7-oxa-2-azaspiro[3.5]nonan-2-yl)acetamido)-2-methylpyridin-3-yl)-2-(6,7-dihydro-5H-pyrazolo[5,1-b][1,3]oxazin-3-yl)pyrazolo[5,1-b]thiazole-7-carboxamide] were 0.4 nM, 2.3 nM and above 7500 nM.
For `Cc1ncc(NC(=O)CN2CC(C)C2)cc1NC(=O)c1cnn2cc(-c3cnn4c3OCCC4)sc12` [Example 407, 2-(6,7-dihydro-5H-pyrazolo[5,1-b][1,3]oxazin-3-yl)-N-(2-methyl-5-(2-(3-methylazetidin-1-yl)acetamido)pyridin-3-yl)pyrazolo[5,1-b]thiazole-7-carboxamide], the half-maximal inhibitory concentration (IC50) in assay [1] was 0.3 nM; in assay [2] it was 6.2 nM; at VEGFR2, unphosphorylated, above 7500 nM.

What is called IC50 is the point on the concentration scale where inhibition reaches its midpoint.
